Literature values as cited in patent US8119653B2, “Belactosin derivatives as therapeutic agents/biological probes and their synthesis” (The Texas A&M University System, priority 2006, dated 2012).

Columns and labels:
[1] = in vivo

- bioavailability [1]: poor
- solubility: poor
SMILES: CCCCCCCCCCC[C@@H](C[C@@H]1OC(=O)[C@H]1CCCCCC)OC(=O)[C@H](CC(C)C)NC=O [Orlistat]
- tumor growth in vivo (tumor growth): can inhibit tumor growth
- effect on tumor cells in vitro (tumor cells): cytotoxic and cytostatic
